Results from patent US6737383B1, “Herbicidal oxadiazolidines” (priority 1999, dated 2004).

Tests used:
soybean = test: Test B pre/postemergence soybean; assay type: in vivo, Glycine max; conditions: for Soybean plant response rating: scale of 0 to 10 where 0 is no effect and 10 is complete control
In short: (§1)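 Herbicidal effect was estimated by eye on a ten-point control scale after plants spent twelve to sixteen days in a greenhouse following soil or foliar treatment. Foliar sprays targeted plants at one to four leaves; all doses were formulated in a non-phytotoxic solvent with surfactant.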

rape = test: Test B pre/postemergence rape; assay type: in vivo, Brassica napus; conditions: for Rape plant response rating: scale of 0 to 10 where 0 is no effect and 10 is complete control
In short: as §1

bedstraw = test: Test B pre/postemergence bedstraw; assay type: in vivo, Galium aparine; conditions: for Bedstraw plant response rating: scale of 0 to 10 where 0 is no effect and 10 is complete control
In short: as §1

sugar beet = test: Test B pre/postemergence sugar beet; assay type: in vivo, Beta vulgaris; conditions: for Sugarbeets plant response rating: scale of 0 to 10 where 0 is no effect and 10 is complete control
In short: as §1

velvetleaf = test: Test B pre/postemergence velvetleaf; assay type: in vivo, Abutilon theophrasti; conditions: for Velvetleaf plant response rating: scale of 0 to 10 where 0 is no effect and 10 is complete control
In short: as §1

pigweed = test: Test B pre/postemergence pigweed; assay type: in vivo, Amaranthus retroflexus; conditions: for Redroot pigweed plant response rating: scale of 0 to 10 where 0 is no effect and 10 is complete control
In short: as §1

cocklebur = test: Test B pre/postemergence cocklebur; assay type: in vivo, Xanthium strumarium; conditions: for Cocklebur plant response rating: scale of 0 to 10 where 0 is no effect and 10 is complete control
In short: as §1

surinam grass = test: Test B pre/postemergence surinam grass; assay type: in vivo, Brachiaria decumbens; conditions: for B. signalgrass plant response rating: scale of 0 to 10 where 0 is no effect and 10 is complete control
In short: as §1

smallflower flatsedge = test: Test B flood test smallflower flatsedge; assay type: in vivo, Cyperus difformis
In short: (§2)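 Flood test on plants grown to the 2-leaf stage; treated plants kept in greenhouse twelve to sixteen days, then visually rated against controls on a 0 (no effect) to 10 (complete control) scale.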

duck salad = test: Test B flood test duck salad; assay type: in vivo, Heteranthera limosa
In short: as §2

wild oat = test: Test B pre/postemergence wild oat; assay type: in vivo, Avena fatua; conditions: for Wild oats plant response rating: scale of 0 to 10 where 0 is no effect and 10 is complete control
In short: as §1

corn = test: Test B pre/postemergence corn; assay type: in vivo, Zea mays; conditions: for Corn plant response rating: scale of 0 to 10 where 0 is no effect and 10 is complete control
In short: as §1

rice = test: Test B flood test rice; assay type: in vivo, Oryza sativa
In short: as §2

crabgrass = test: Test B pre/postemergence crabgrass; assay type: in vivo, Digitaria sanguinalis; conditions: for Crabgrass plant response rating: scale of 0 to 10 where 0 is no effect and 10 is complete control
In short: as §1

bamyardgrass = test: Test B flood test barnyardgrass; assay type: in vivo, Echinochloa crus-galli
In short: as §2

morningglory = test: Test B pre/postemergence morningglory; assay type: in vivo, Ipomoea hederacea; conditions: for Morningglory plant response rating: scale of 0 to 10 where 0 is no effect and 10 is complete control
In short: as §1

[1] = Postemergence, Rate 125 g/ha, scale 0 to 10, 0 is no effect, 10 is complete control
[2] = Postemergence, Rate 250 g/ha, scale 0 to 10, 0 is no effect, 10 is complete control
[3] = Preemergence, Rate 62 g/ha, scale 0 to 10 (0 no effect, 10 complete control)
[4] = Rate 500 g/ha, Postemergence, scale 0 to 10, 0 no effect, 10 complete control
[5] = Rate 62 g/ha, flood test species, Pre-emergence, visual evaluation after twelve to sixteen days
[6] = Rate 125 g/ha, under heading Pre-emergence, flood test species, visual evaluation after twelve to sixteen days
[7] = Rate 250 g/ha, Pre-emergence, flood-test species, scale 0 to 10, 0 is no effect, 10 is complete control
[8] = Rate 500 g/ha, Pre-emergence, flood test species, scale 0 to 10 (0 no effect, 10 complete control)

CCOc1nc(C(F)(F)F)c(Cn2c(=O)on(C(=O)N(c3ccccc3)C(C)C)c2=O)s1 [Compound 379]
Plant response rating, Soybean (soybean; [1]): 1 | Plant response rating, Soybean (soybean; [2]): 1 | Plant response rating, Soybean (soybean; [3]): 0 | Soybean plant response rating (0 to 10 scale) (soybean; Preemergence, Rate 125 g/ha): 0 | Soybean plant response rating (soybean; Preemergence, Rate 250 g/ha): 0 | Soybean plant response rating (soybean; Preemergence, Rate 500 g/ha): 0 | Soybean plant response rating (soybean; Rate 62 g/ha, Postemergence): 1 | Plant response rating, Soybean (soybean; [4]): 2 | Plant response rating, Rape (rape; [1]): 0 | Plant response rating, Rape (rape; [2]): 0 | Plant response rating, Rape (rape; [3]): 0 | Rape plant response rating (0 to 10 scale) (rape; Preemergence, Rate 125 g/ha): 0 | Rape plant response rating (rape; Preemergence, Rate 250 g/ha): 0 | Rape plant response rating (rape; Preemergence, Rate 500 g/ha): 0 | Rape plant response rating (rape; Rate 62 g/ha, Postemergence): 0 | Plant response rating, Rape (rape; [4]): 0 | Plant response rating, Bedstraw (bedstraw; [1]): 0 | Plant response rating, Bedstraw (bedstraw; [2]): 0 | Plant response rating, Bedstraw (bedstraw; [3]): 0 | Bedstraw plant response rating (0 to 10 scale) (bedstraw; Preemergence, Rate 125 g/ha): 0 | Bedstraw plant response rating (bedstraw; Preemergence, Rate 250 g/ha): 0 | Bedstraw plant response rating (bedstraw; Rate 62 g/ha, Postemergence): 0 | Plant response rating, Bedstraw (bedstraw; [4]): 0 | Plant response rating, Sugarbeets (sugar beet; [1]): 0 | Plant response rating, Sugarbeets (sugar beet; [2]): 0 | Plant response rating, Sugarbeets (sugar beet; [3]): 0 | Sugarbeets plant response rating (0 to 10 scale) (sugar beet; Preemergence, Rate 125 g/ha): 0 | Sugarbeets plant response rating (sugar beet; Preemergence, Rate 250 g/ha): 0 | Sugarbeets plant response rating (sugar beet; Preemergence, Rate 500 g/ha): 0 | Sugarbeets plant response rating (sugar beet; Rate 62 g/ha, Postemergence): 0 | Plant response rating, Sugarbeets (sugar beet; [4]): 0 | Plant response rating, Velvetleaf (velvetleaf; [1]): 0 | Plant response rating, Velvetleaf (velvetleaf; [2]): 0 | Plant response rating, Velvetleaf (velvetleaf; [3]): 0 | Velvetleaf plant response rating (0 to 10 scale) (velvetleaf; Preemergence, Rate 125 g/ha): 0 | Velvetleaf plant response rating (velvetleaf; Preemergence, Rate 250 g/ha): 0 | Velvetleaf plant response rating (velvetleaf; Preemergence, Rate 500 g/ha): 0 | Velvetleaf plant response rating (velvetleaf; Rate 62 g/ha, Postemergence): 0 | Plant response rating, Velvetleaf (velvetleaf; [4]): 0 | Plant response rating, Redroot pigweed (pigweed; [1]): 0 | Plant response rating, Redroot pigweed (pigweed; [2]): 1 | Plant response rating, Redroot pigweed (pigweed; [3]): 0 | Redroot pigweed plant response rating (0 to 10 scale) (pigweed; Preemergence, Rate 125 g/ha): 0 | Redroot pigweed plant response rating (pigweed; Preemergence, Rate 250 g/ha): 0 | Redroot pigweed plant response rating (pigweed; Preemergence, Rate 500 g/ha): 0 | Redroot pigweed plant response rating (pigweed; Rate 62 g/ha, Postemergence): 0 | Plant response rating, Redroot pigweed (pigweed; [4]): 1 | Plant response rating, Cocklebur (cocklebur; [1]): 0 | Plant response rating, Cocklebur (cocklebur; [2]): 0 | Plant response rating, Cocklebur (cocklebur; [3]): 0 | Cocklebur plant response rating (0 to 10 scale) (cocklebur; Preemergence, Rate 125 g/ha): 0 | Cocklebur plant response rating (cocklebur; Preemergence, Rate 250 g/ha): 0 | Cocklebur plant response rating (cocklebur; Preemergence, Rate 500 g/ha): 0 | Cocklebur plant response rating (cocklebur; Rate 62 g/ha, Postemergence): 0 | Plant response rating, Cocklebur (cocklebur; [4]): 0 | Plant response rating, B. signalgrass (surinam grass; [1]): 0 | Plant response rating, B. signalgrass (surinam grass; [2]): 0 | Plant response rating, B. signalgrass (surinam grass; [3]): 0 | B. signalgrass plant response rating (0 to 10 scale, 0 is no effect, 10 is complete control) (surinam grass; Preemergence, Rate 125 g/ha): 0 | B. signalgrass plant response rating (surinam grass; Preemergence, Rate 250 g/ha): 0 | B. signalgrass plant response rating (surinam grass; Preemergence, Rate 500 g/ha): 0 | B. signalgrass plant response rating (surinam grass; Rate 62 g/ha, Postemergence): 0 | Plant response rating, B. signalgrass (surinam grass; [4]): 0 | Plant response rating, S. Flatsedge (0 to 10 scale, 0 is no effect, 10 is complete control) (smallflower flatsedge; [5]): 0 | S. Flatsedge plant response rating (0 to 10 scale, 0 is no effect, 10 is complete control) (smallflower flatsedge; [6]): 0 | S. Flatsedge plant response rating (smallflower flatsedge; [7]): 0 | S. Flatsedge plant response rating (smallflower flatsedge; [8]): 0 | Plant response rating, Ducksalad (0 to 10 scale, 0 is no effect, 10 is complete control) (duck salad; [5]): 0 | Ducksalad plant response rating (0 to 10 scale, 0 is no effect, 10 is complete control) (duck salad; [6]): 0 | Ducksalad plant response rating (duck salad; [7]): 0 | Ducksalad plant response rating (duck salad; [8]): 0 | Plant response rating, Wild oats (wild oat; [1]): 0 | Plant response rating, Wild oats (wild oat; [2]): 0 | Plant response rating, Wild oats (wild oat; [3]): 0 | Wild oats plant response rating (0 to 10 scale) (wild oat; Preemergence, Rate 125 g/ha): 0 | Wild oats plant response rating (wild oat; Preemergence, Rate 250 g/ha): 0 | Wild oats plant response rating (wild oat; Preemergence, Rate 500 g/ha): 0 | Wild oats plant response rating (wild oat; Rate 62 g/ha, Postemergence): 0 | Plant response rating, Wild oats (wild oat; [4]): 0 | Plant response rating, Corn (corn; [1]): 0 | Plant response rating, Corn (corn; [2]): 0 | Plant response rating, Corn (corn; [3]): 0 | Corn plant response rating (0 to 10 scale) (corn; Preemergence, Rate 125 g/ha): 0 | Corn plant response rating (corn; Preemergence, Rate 250 g/ha): 0 | Corn plant response rating (corn; Preemergence, Rate 500 g/ha): 0 | Corn plant response rating (corn; Rate 62 g/ha, Postemergence): 0 | Plant response rating, Corn (corn; [4]): 0 | Plant response rating, Rice (0 to 10 scale, 0 is no effect, 10 is complete control) (rice; [5]): 0 | Rice plant response rating (0 to 10 scale, 0 is no effect, 10 is complete control) (rice; [6]): 0 | Rice plant response rating (rice; [7]): 0 | Rice plant response rating (rice; [8]): 0 | Plant response rating, Crabgrass (crabgrass; [1]): 0 | Plant response rating, Crabgrass (crabgrass; [2]): 0 | Plant response rating, Crabgrass (crabgrass; [3]): 0 | Crabgrass plant response rating (0 to 10 scale) (crabgrass; Preemergence, Rate 125 g/ha): 0 | Crabgrass plant response rating (crabgrass; Preemergence, Rate 250 g/ha): 7 | Crabgrass plant response rating (crabgrass; Preemergence, Rate 500 g/ha): 8 | Crabgrass plant response rating (crabgrass; Rate 62 g/ha, Postemergence): 0 | Plant response rating, Crabgrass (crabgrass; [4]): 0 | Plant response rating, Barnyardgrass (0 to 10 scale, 0 is no effect, 10 is complete control) (bamyardgrass; [5]): 0 | Barnyardgrass plant response rating (0 to 10 scale, 0 is no effect, 10 is complete control) (bamyardgrass; [6]): 0 | Barnyardgrass plant response rating (bamyardgrass; [7]): 0 | Barnyardgrass plant response rating (bamyardgrass; [8]): 0 | Plant response rating, Morningglory (morningglory; [1]): 7 | Plant response rating, Morningglory (morningglory; [2]): 8 | Plant response rating, Morningglory (morningglory; [3]): 0 | Morningglory plant response rating (0 to 10 scale) (morningglory; Preemergence, Rate 125 g/ha): 0 | Morningglory plant response rating (morningglory; Preemergence, Rate 250 g/ha): 0 | Morningglory plant response rating (morningglory; Preemergence, Rate 500 g/ha): 0 | Morningglory plant response rating (morningglory; Rate 62 g/ha, Postemergence): 5 | Plant response rating, Morningglory (morningglory; [4]): 10
